# Results reported in patent US20070111988A1, “Selective estrogen receptor modulators” (ELI LILLY AND COMPANY, priority 2004, published 2007).
# How the values were obtained:
# [1] = system: Ishikawa human endometrial tumor cells; assay: Ishikawa Cell Proliferation Assay, agonist mode (alkaline phosphatase readout); format: cell-based; conditions: for stimulation compared with tamoxifen: compound alone; for Emax: Homo sapiens, Ishikawa, versus the response to tamoxifen, read-out: relative % efficacy
# Method: (§1) Ishikawa Cell Proliferation Assay: This assay measures cell proliferation (using an alkaline phosphatase readout) in both an agonist mode in the presence of a compound of the present invention alone, and in an antagonist mode in which the ability of a compound of the present invention to block estradiol stimulation of growth is measured.
# (§2) Ishikawa human endometrial tumor cells are maintained in MEM (minimum essential medium, with Earle's salts and L-Glutamine, Gibco BRL, Gaithersburg, Md.), supplemented with 10% fetal bovine serum (FBS) (V/V), (Gibco BRL). One day prior to assay, growth media is changed to assay medium, DMEM/F-12 (3:1) (Dulbecco's Modified Eagle Medium:Nutrient Mixture F-12, 3:1 Mixture, phenol red-free, Gibco BRL) supplemented with 5% dextran coated charcoal stripped fetal bovine serum (DCC-FBS) (Hyclone, Logen, Utah), L-Glutamine (2 mM), MEM sodium pyruvate (1 mM), HEPES (N-[2-hydroxyethyl]piperazine-N′-[2-ethanesulfonic acid] 2 mM) all from Gibco BRL). After an overnight incubation, Ishikawa cells are rinsed with Dulbecco's Phosphate Buffered Saline (1×) (D-PBS) without Ca^+2 and Mg^+2 (Gibco BRL), and trypsinized by a 3 minute incubation with 0.25% Trypsin/EDTA, phenol red-free (Gibco BRL). Cells are resuspended in assay medium and adjusted to 250,000 cells/mL. Approximately 25,000 cells in a 100 ul media are added to flat-bottom 96 wells microculture plates (Costar 3596) and incubated at 37° C. in a 5% CO2 humidified incubator for 24 hours. The next day, serial dilutions of compounds are prepared in assay medium (at 6 times the final concentration in the assay). The assay is run in dual mode, agonist and antagonist modes.
# For the agonist mode, plates receive 25 μl/well of assay medium followed by 25 μl/well of a diluted compound of the present invention (at 6× the final concentrations). For the antagonist mode, plates receive 25 μl/well of 6 nM E2 (β-Estradiol, Sigma, St. Louis, Mo.) followed by 25 μl/well of a diluted compound of the present invention (at 6× the final concentrations). After an additional 48-hour incubation at 37° C. in a 5% CO2 humidified incubator, media is aspirated from wells and 100 μl fresh assay medium is added to each microculture. Serial dilutions of compounds are prepared and added to the cells as described above. After an additional 72 hour incubation at 37° C. in a 5% CO2 humidified incubator, the assay is quenched by removing media and rinsing plates twice in Dulbecco's Phosphate Buffered Saline (1×) (D-PBS) (Gibco BRL). The plates are dried for 5 minutes and frozen at −70° C. for at least 1 hour. The plates are then removed from the freezer and allowed to thaw at room temperature. To each well, 100 μl of 1-Step™ PNPP (Pierce Chemical Company, Rockford, Ill.) is added. After a 20-minute incubation, plates are read on a spectophotometer at 405 nm.
# (§3) The data is fitted to a linear interpolation to derive EC50 (for agonist mode) or IC50 (for antagonist mode) values. For the antagonist mode, a % efficacy for each compound is calculated versus E2 (1 nM) alone. For the agonist mode, a % efficacy for each compound is calculated versus the response to tamoxifen.
# [2] = system: Ishikawa human endometrial tumor cells; assay: Ishikawa Cell Proliferation Assay, antagonist mode (block of estradiol stimulation); format: cell-based; conditions: for IC50: 1 nM E2; for Emax: versus E2 (1 nM) alone, read-out: % efficacy
# Method: as §1, §2
# For the agonist mode, plates receive 25 μl/well of assay medium followed by 25 μl/well of a diluted compound of the present invention (at 6× the final concentrations). For the antagonist mode, plates receive 25 μl/well of 6 nM E2 (β-Estradiol, Sigma, St. Louis, Mo.) followed by 25 μl/well of a diluted compound of the present invention (at 6× the final concentrations). After an additional 48-hour incubation at 37° C. in a 5% CO2 humidified incubator, media is aspirated from wells and 100 μl fresh assay medium is added to each microculture. Serial dilutions of compounds are prepared and added to the cells as described above. […] After a 20-minute incubation, plates are read on a spectophotometer at 405 nm.
# as §3
# mature F344 female rats = assay: 10-Day Rat Hormone (Ovarian Stimulation) Screen; format: in vivo; conditions: oral gavage 10 days, serum about 2 hours after the 10th dose, RIA
# Method: 10-Day Rat Hormone (Ovarian Stimulation) Screen: An initial, first screen for ovarian toxicity is conducted using a 10-day rat hormone study to measure estradiol and luteinizing hormone levels after compound administration. This screen is conducted by administering compound by oral gavage for 10 days to mature (9-10 week old) F344 female rats. Trunk blood is collected by rapid decapitation for evaluation of LH and estradiol levels approximately 2 hours after the 10th dose. Serum, obtained by centrifugation, is removed and stored frozen below −60° C. until assayed. Serum levels of LH and estradiol are measured using radioimmunoassay (RIA) methods.
# Rat LH primary antibody and reference preparations (rat LH:RP-3) are obtained from Dr. A. F. Parlow, Director, Pituitary Hormones and Antisera Center, Harbor-UCLA Medical Center, Torrance, Calif. The LH assay upper limits of detection are 30 ng/mL and the lower limits of detection are 0.1 ng/mL for the 100 μl samples.
# E2 Clinical Assays. DiaSorin s.r.l., Saluggia (Vercelli), Italy. The upper limit of detection is 1000 pg/mL and the lower limit of detection is 5 pg/mL.
# [3] = system: estrogenic stimulation of the uterus in immature female rats; assay: 3-Day Rat Uterus Antagonist Assay; format: in vivo; conditions: 3 days, with E2 0.1 mg/kg; for inhibition of the estrogen-induced response (uterine weight/body weight ratio): 1.0 mg/kg oral; for % antagonism / ED50: oral
# From the text: 3-Day Rat Uterus Antagonist Assay: This model for uterine antagonism utilizes immature (3 week old) female rats that are highly sensitive to estrogenic stimulation of the uterus given that their circulating estrogen levels are prepubertal. The uteri from immature rats are fully responsive to exogenous estrogen, yet are quiescent in the absence of exogenous estrogen. Administration of exogenous estrogen to immature rats produces a reliable elevation of uterine weight, which can be used to study uterine antagonist effects. The rats are treated with both estradiol and 4 different concentrations of a compound of the present invention for 3 days and then uterine wet weights are measured.
# Nineteen to twenty-one day old (or 45-50 g) female rats are orally treated with E2 (0.1 mg/kg, a maximal stimulatory estrogenic stimulus for reliably increasing uterine weight) and 10, 1.0, 0.1 and 0.01 mg/kg test compound for 3 days, 6 rats per group. Test compounds are dissolved in 20% β-hydroxycyclodextrin and administered by oral gavage in a volume of 0.2 mL daily (15 min. prior to the ethynyl estradiol gavage). A vehicle control, E2 alone and E2+raloxifene are also done as controls. The animals are fasted overnight following the final dose. On the following morning, the animals are weighed, then euthanized (by carbon dioxide asphyxiation) and the uteri rapidly collected (via a mid-line ventral incision) and weighed.
# Uterine weight/body weight ratios (UWR) are calculated for each animal. The percent inhibition of the estrogen-induced response is then calculated by the following formula: percent inhibition=100×(UWRestrogen−UWRtest compound/UWRestrogen−UWRcontrol). ED50 values are derived from a semi-log regression analysis of the linear aspect of the dose response curve. Both the UWR data and the percent inhibition data are statistically analyzed by one way analysis of variance (ANOVA) with post-hoc testing by Fisher's PLSD when indicated by a p≦0.05. Statistical analyses are performed using the Statview® 4.0 software package.
# [4] = system: uterus of mature, ovariectomized rats; assay: 4-Day OVX Rat Uterine Agonist Assay; format: in vivo; conditions: 4 days of treatment, 3 doses
# Method: Seventy-five day old rats are ovariectomized and treatment is started 14 days later when circulating estradiol levels have reached minimal levels. After 4 days of treatment with 3 doses of a compound of the present invention, (6 rats per group) body weight, uterine wet weight and uterine eosinophil peroxidase (EPO) activity are measured. Cholesterol levels are also measured to compare relative ability to lower cholesterol with other SERMs. If there is any question of uterine stimulation, histological examination will determine epithelial cell height.
SMILES,stimulation compared with tamoxifen [1],inhibition of the estrogen-induced response (uterine weight/body weight ratio) [3],other results
"Cl.OCc1ccc(-c2ccc3cc(O)ccc3c2Oc2ccc(OCCN3CCCCC3)cc2)cc1 [Example 41, 6-(4-Hydroxymethyl-phenyl)-5-[4-(2-piperidin-1-yl-ethoxy)-phenoxy]-naphthalen-2-ol, hydrochloride]",less stimulatory than tamoxifen,,
"O=C(O)C(F)(F)F.O=C(O)c1cccc2c1OC(c1ccc(OCCN3CCCCC3)cc1)c1c-2ccc2cc(O)ccc12 (centres unmarked) [Example 35, 2-Hydroxy-5-[4-(2-piperidin-1-yl-ethoxy)-phenyl]-5H-6-oxa-chrysene-7-carboxylic acid trifluoroacetate]",less stimulatory than tamoxifen,,IC50 [2]: 36 nM; Emax [2]: 92%; Emax [1]: 25%
"COC(=O)c1ccc(-c2ccc3cc(O)ccc3c2Oc2ccc(OCCN3CCCCC3)cc2)cc1.Cl [Example 5, 4-{6-Hydroxy-1-[4-(2-piperidin-1-yl-ethoxy)-phenoxy]-naphthalen-2-yl}-benzoic acid methyl ester hydrochloride]",less stimulatory than tamoxifen,inhibit the estrogen-induced response,circulating LH levels (mature F344 female rats): did not significantly elevate; circulating estradiol levels (mature F344 female rats): did not significantly elevate; uterine eosinophil peroxidase (EPO) activity [4]: did not cause any dose-related statistically significant increase in EPO activity
"OCc1ccc2c(c1)OC(c1ccc(OCCN3CCCCC3)cc1)c1c-2ccc2cc(O)ccc12 (centres unmarked) [Example 39, 8-Hydroxymethyl-5-[4-(2-piperidin-1-yl-ethoxy)-phenyl]-5H-6-oxa-chrysen-2-ol]",less stimulatory than tamoxifen,,
"COc1ccc2c3c(ccc2c1)-c1ccc(CO)cc1OC3c1ccc(OCCN2CCCCC2)cc1 (centres unmarked) [Example 36, {2-Methoxy-5-[4-(2-piperidin-1-yl-ethoxy)-phenyl]-5H-6-oxa-chrysen-8-yl}-methanol]",less stimulatory than tamoxifen,,
"Cl.O=C(O)c1ccc(-c2ccc3cc(O)ccc3c2Oc2ccc(OCCN3CCCCC3)cc2)cc1 [Example 6, 4-{6-Hydroxy-1-[4-(2-piperidin-1-yl-ethoxy)-phenoxy]-naphthalen-2-yl}-benzoic acid hydrochloride]",less stimulatory than tamoxifen,,
"Cl.O=C1NCc2cc(-c3ccc4cc(O)ccc4c3Oc3ccc(OCCN4CCCCC4)cc3)ccc21 [Example 11, 5-{6-Hydroxy-1-[4-(2-piperidin-1-yl-ethoxy)-phenoxy]-naphthalen-2-yl}-2,3-dihydro-isoindol-1-one Hydrochloride]",less stimulatory than tamoxifen,inhibit the estrogen-induced response,% antagonism [3]: 79%; ED50 [3]: 0.3 mpk
"COC(=O)c1cccc(-c2ccc3cc(O)ccc3c2Oc2ccc(OCCN3CCCCC3)cc2)c1.Cl [Example 2, 3-{6-Hydroxy-1-[4-(2-piperidin-1-yl-ethoxy)-phenoxy]-naphthalen-2-yl}-benzoic acid methyl ester hydrochloride]",less stimulatory than tamoxifen,,
"CN(C)C(=O)c1cccc(-c2ccc3cc(O)ccc3c2Oc2ccc(OCCN3CCCCC3)cc2)c1.Cl [Example 8, 3-{6-Hydroxy-1-[4-(2-piperidin-1-yl-ethoxy)-phenoxy]-naphthalen-2-yl}-N,N-dimethylbenzamide, hydrochloride salt]",less stimulatory than tamoxifen,inhibit the estrogen-induced response,IC50 [2]: 9 nM; Emax [2]: 95%; Emax [1]: 15%
COc1ccc2c(Oc3ccc(OCCN4CCCCC4)cc3)c(-c3ccc(C(C)(C)O)cc3)ccc2c1 [Example 44],less stimulatory than tamoxifen,,
"OCc1ccc2c(c1)OC(c1ccc(OCCN3CCCCC3)cc1)c1c-2ccc2cc(O)ccc12 (racemic) [Example 37, 8-Hydroxymethyl-5-[4-(2-piperidin-1-yl-ethoxy)-phenyl]-5H-6-oxa-chrysen-2-ol]",less stimulatory than tamoxifen,inhibit the estrogen-induced response,circulating LH levels (mature F344 female rats): did not significantly elevate; circulating estradiol levels (mature F344 female rats): did not significantly elevate; % antagonism [3]: 89%; ED50 [3]: 0.06 mpk
"Cl.NC(=O)c1cccc(-c2ccc3cc(O)ccc3c2Oc2ccc(OCCN3CCCCC3)cc2)c1 [Example 1, 3-{6-Hydroxy-1-[4-(2-piperidin-1-yl-ethoxy)-phenoxy]-naphthalen-2-yl}-benzamide hydrochloride]",less stimulatory than tamoxifen,,
"O=C(O)C(F)(F)F.O=C(O)c1cccc(-c2ccc3cc(O)ccc3c2Oc2ccc(OCCN3CCCCC3)cc2)c1 [Example 3, 3-{6-Hydroxy-1-[4-(2-piperidin-1-yl-ethoxy)-phenoxy]-naphthalen-2-yl}-benzoic acid trifluoroacetate]",less stimulatory than tamoxifen,,
